Source: the NIST ThermoML archive (doi:10.1016/j.jct.2018.12.019)
± gives the expanded uncertainty stated by the source.

Assay: xn = mol fraction of the nth substance listed
Details: 98 kPa, Liquid; for speed of sound: Frequency=3 MHz, Single path-length method; for mass density: Vibrating tube method

Cn1ccnc1 [1-methylimidazole] + CO
Details	mass density, 288.15 K [kg/m3]	mass density, 298.15 K [kg/m3]	mass density, 308.15 K [kg/m3]	mass density, 318.15 K [kg/m3]	mass density, 328.15 K [kg/m3]	speed of sound, 288.15 K [m/s]	speed of sound, 298.15 K [m/s]	speed of sound, 308.15 K [m/s]	speed of sound, 318.15 K [m/s]	speed of sound, 328.15 K [m/s]
x1 = 0.0507	822.81 ± 0.82	813.46 ± 0.82	804.03 ± 0.82	794.49 ± 0.82	784.81 ± 0.82	1185.2 ± 1.1	1151.8 ± 1.1	1118.6 ± 1.1	1085.8 ± 1.1	1053.3 ± 1.1
x1 = 0.1009	846.62 ± 0.81	837.31 ± 0.81	827.92 ± 0.81	818.41 ± 0.81	808.78 ± 0.82	1230.7 ± 1.2	1196.9 ± 1.2	1163.2 ± 1.2	1130 ± 1.2	1097.2 ± 1.2
x1 = 0.1961	884.53 ± 0.81	875.26 ± 0.81	865.91 ± 0.81	856.48 ± 0.81	846.92 ± 0.81	1305.4 ± 1.2	1270.8 ± 1.2	1236.4 ± 1.2	1202.4 ± 1.2	1168.7 ± 1.2
x1 = 0.296	918.09 ± 0.81	908.87 ± 0.81	899.58 ± 0.81	890.21 ± 0.81	880.75 ± 0.81	1374 ± 1.2	1338.8 ± 1.2	1303.7 ± 1.2	1268.9 ± 1.2	1234.5 ± 1.2
x1 = 0.3988	946.5 ± 0.81	937.33 ± 0.81	928.11 ± 0.81	918.82 ± 0.81	909.45 ± 0.81	1434.1 ± 1.2	1398.4 ± 1.2	1362.7 ± 1.2	1327.4 ± 1.2	1292.4 ± 1.2
x1 = 0.5058	969.95 ± 0.81	960.86 ± 0.81	951.71 ± 0.81	942.51 ± 0.81	933.23 ± 0.81	1484.7 ± 1.3	1448.5 ± 1.3	1412.4 ± 1.3	1376.6 ± 1.3	1341.1 ± 1.3
x1 = 0.6096	989.14 ± 0.81	980.11 ± 0.81	971.04 ± 0.81	961.92 ± 0.81	952.74 ± 0.82	1526.2 ± 1.3	1489.6 ± 1.3	1453 ± 1.3	1416.8 ± 1.3	1380.9 ± 1.3
x1 = 0.7023	1003.69 ± 0.82	994.72 ± 0.82	985.72 ± 0.82	976.66 ± 0.82	967.55 ± 0.82	1558 ± 1.3	1521.2 ± 1.3	1484.3 ± 1.3	1447.8 ± 1.3	1411.7 ± 1.3
x1 = 0.8018	1017.21 ± 0.82	1008.3 ± 0.82	999.35 ± 0.82	990.36 ± 0.82	981.32 ± 0.82	1587.5 ± 1.4	1550.4 ± 1.4	1513.3 ± 1.4	1476.5 ± 1.4	1440.5 ± 1.4
x1 = 0.8994	1028.89 ± 0.83	1020.02 ± 0.83	1011.12 ± 0.82	1002.18 ± 0.82	993.19 ± 0.82	1612.9 ± 1.4	1575.6 ± 1.4	1538.2 ± 1.4	1501.2 ± 1.4	1464.5 ± 1.4
x1 = 0.951	1034.48 ± 0.83	1025.61 ± 0.83	1016.76 ± 0.83	1007.87 ± 0.83	998.91 ± 0.83	1625 ± 1.4	1587.6 ± 1.4	1550.1 ± 1.4	1513 ± 1.4	1476.2 ± 1.4
x1 = 1	1039.36 ± 0.83	1030.52 ± 0.83	1021.66 ± 0.83	1012.76 ± 0.83	1003.83 ± 0.83	1634.1 ± 1.4	1596.5 ± 1.4	1559 ± 1.4	1521.8 ± 1.4	1485 ± 1.4

Cn1ccnc1 [1-methylimidazole] + O
Details	mass density, 288.15 K [kg/m3]	mass density, 298.15 K [kg/m3]	mass density, 308.15 K [kg/m3]	mass density, 318.15 K [kg/m3]	mass density, 328.15 K [kg/m3]	speed of sound, 288.15 K [m/s]	speed of sound, 298.15 K [m/s]	speed of sound, 308.15 K [m/s]	speed of sound, 318.15 K [m/s]	speed of sound, 328.15 K [m/s]
x1 = 0.0521	1011.8 ± 0.8	1007.6 ± 0.8	1002.76 ± 0.8	997.34 ± 0.8	991.41 ± 0.8	1581.3 ± 1.1	1587 ± 1.1	1588.8 ± 1.1	1586.8 ± 1	1581.4 ± 1
x1 = 0.1076	1022.54 ± 0.8	1016.8 ± 0.8	1010.63 ± 0.8	1004.04 ± 0.8	997.06 ± 0.8	1645.6 ± 1.1	1636.9 ± 1.1	1625.7 ± 1.1	1612.2 ± 1	1596.3 ± 1
x1 = 0.2035	1035.77 ± 0.8	1028.46 ± 0.8	1020.89 ± 0.8	1013.06 ± 0.8	1004.95 ± 0.8	1705.3 ± 1.1	1682.6 ± 1.1	1658.4 ± 1.1	1633.1 ± 1.1	1606.6 ± 1.1
x1 = 0.3041	1044.45 ± 0.8	1036.28 ± 0.8	1027.92 ± 0.8	1019.36 ± 0.8	1010.6 ± 0.8	1731.5 ± 1.1	1707.2 ± 1.1	1669.9 ± 1.1	1638.1 ± 1.1	1605.7 ± 1.1
x1 = 0.4017	1048.95 ± 0.81	1040.34 ± 0.81	1031.57 ± 0.81	1022.64 ± 0.8	1013.55 ± 0.8	1735.5 ± 1.1	1701.4 ± 1.1	1667.7 ± 1.1	1631.6 ± 1.1	1596.3 ± 1.1
x1 = 0.5053	1050.2 ± 0.81	1041.41 ± 0.81	1032.48 ± 0.81	1023.41 ± 0.81	1014.19 ± 0.81	1723.2 ± 1.2	1687.5 ± 1.2	1651.3 ± 1.2	1615 ± 1.2	1578.4 ± 1.2
x1 = 0.6052	1048.91 ± 0.81	1040.12 ± 0.81	1031.21 ± 0.81	1022.16 ± 0.81	1012.98 ± 0.81	1702.4 ± 1.2	1666.6 ± 1.2	1630.2 ± 1.2	1593.7 ± 1.2	1557 ± 1.2
x1 = 0.7018	1046.64 ± 0.82	1037.87 ± 0.81	1028.99 ± 0.81	1020.01 ± 0.81	1010.92 ± 0.81	1681.9 ± 1.3	1645.8 ± 1.3	1609.4 ± 1.3	1573 ± 1.3	1536.5 ± 1.3
x1 = 0.8044	1043.96 ± 0.82	1035.17 ± 0.82	1026.32 ± 0.82	1017.39 ± 0.82	1008.38 ± 0.82	1662.5 ± 1.3	1626 ± 1.3	1589.3 ± 1.3	1552.7 ± 1.3	1516.3 ± 1.3
x1 = 0.9031	1041.64 ± 0.83	1032.83 ± 0.83	1023.98 ± 0.82	1015.07 ± 0.82	1006.1 ± 0.82	1647.8 ± 1.4	1610.9 ± 1.4	1573.7 ± 1.4	1536.9 ± 1.4	1500.3 ± 1.4
x1 = 0.9555	1040.49 ± 0.83	1031.66 ± 0.83	1022.8 ± 0.83	1013.91 ± 0.83	1004.96 ± 0.82	1640.8 ± 1.4	1603.8 ± 1.4	1566.4 ± 1.4	1529.3 ± 1.4	1492.6 ± 1.4
x1 = 1	1039.36 ± 0.83	1030.52 ± 0.83	1021.66 ± 0.83	1012.76 ± 0.83	1003.83 ± 0.83	1634.1 ± 1.4	1596.5 ± 1.4	1559 ± 1.4	1521.8 ± 1.4	1485 ± 1.4
